Here are results for 35 molecules from patent US6242494A, “Substituted β-amino acid inhibitors of methionine aminopeptidase-2” (Abbott Laboratories, priority 1999, dated 2001).

The term IC50 denotes the point on the concentration scale where inhibition reaches its midpoint.

The structures appear in SMILES notation. Where a name gives a salt, the structure may show the parent alone.

T1 sequence (P50579 whole entry): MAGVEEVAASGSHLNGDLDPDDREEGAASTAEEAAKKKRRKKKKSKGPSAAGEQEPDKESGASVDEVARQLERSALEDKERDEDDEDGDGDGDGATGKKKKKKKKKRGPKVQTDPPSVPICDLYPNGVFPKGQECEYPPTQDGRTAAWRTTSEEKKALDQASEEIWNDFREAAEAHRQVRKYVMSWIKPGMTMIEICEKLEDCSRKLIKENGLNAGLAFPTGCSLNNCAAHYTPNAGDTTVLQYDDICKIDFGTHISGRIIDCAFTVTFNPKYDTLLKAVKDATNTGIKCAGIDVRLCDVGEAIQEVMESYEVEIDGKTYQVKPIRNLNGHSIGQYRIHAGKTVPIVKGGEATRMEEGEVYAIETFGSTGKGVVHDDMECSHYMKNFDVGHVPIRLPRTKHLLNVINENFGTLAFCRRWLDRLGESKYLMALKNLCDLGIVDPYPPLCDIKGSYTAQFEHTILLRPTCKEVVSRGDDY

One experiment has as its target T1, methionine aminopeptidase-2 (MetAP2) (Homo sapiens, UniProt P50579).
T1 construct: made in house; host or cells: insect cells, baculovirus system (secreted, purified from culture supernatant)
Kind of experiment: Inhibition of MetAP2 enzyme activity (96-well, Met-Ala-Ser substrate, L-amino acid oxidase/peroxidase/ortho-dianisidine, 450 nm). The class given is biochemical. Conditions: IC50, recombinant MetAP2 4 μg/mL, pH 7.4, Met-Ala-Ser substrate, 20 minutes. The method, then: The ability of compounds of the present invention to inhibit methionine aminopeptidase 2 was evaluated using the following assay.
Assays for MetAP2 enzyme activity and MetAP2 inhibition were performed in 96-well microtiter plates. Compounds to be tested for MetAP2 inhibition were dissolved in dimethyl-sulfoxide at 10 mM and diluted ten-fold in assay buffer ([…], pH 7.4, 100 mM NaCl). Ten microliters of solution of each compound to be tested for inhibition were introduced into each cell of the plate, with each compound being tested in triplicate.
The absorbence at 450 nanometers was measured every 20 seconds over a period of twenty minutes using an automaic plate reader (Molecular Devices, CA, USA). The Vmax in mOD/min, calculated for each well was used to represent MetAP2 activity. The IC50 for each inhibitor was obtained by plotting the remaining MetAP2 activity versus inhibitor concentration.
With `C[C@H](NC(=O)C(O)[C@H](N)CC1CCCCC1)C(=O)Nc1cc([N+](=O)[O-])ccc1O` (stereo partly drawn) [Example 69, ((2RS,3R)-3-amino-2-hydroxy-4-cyclohexyl)butanoyl-L-alanyl-(2-hydroxy-5-nitrophen-1-yl)amide hydrochloride], the IC50 was 5.3 µM.

Regarding `N[C@H](CC1CCCCC1)C(O)C(=O)NCCc1ccc(Cl)cc1` (mixture of isomers) [Example 198, (2RS,3R)-3-amino-N-(4-chlorophenethyl)-4-cyclohexyl-2-hydroxybutanamide hydrochloride], the IC50 was 0.84 µM.

For `Cc1ccc([N+](=O)[O-])cc1NC(=O)C(O)[C@H](N)CC1CCCCC1` (mixture of isomers) [Example 184, (2RS,3R)-3-amino-4-cyclohexyl-2-hydroxy-N-(2-methyl-5-nitrophenyl)butanamide hydrochloride], the IC50 came out at 0.43 µM. With `CCSCC[C@@H](NC(=O)CO)C(O)C(=O)NCCCCc1ccccc1` (some centres unmarked) [Example 40, hydrochloride], the IC50 stood at 81 µM.

Take `CC(C)(C)c1ccc(COC(=O)[C@@H](CO)NC(=O)C(O)[C@H](N)CC2CCCCC2)cc1` (stereo partly drawn) [Example 137, 4-(tert-butyl)benzyl (2RS,3R,2'R)-2-((3-amino-4-cyclohexyl-2-hydroxybutanoyl)amino-3-hydroxypropanoate trifluoroacetate]: the IC50 came to 8.4 µM. For the molecule `CC(C)CCCC(C)NC(=O)C(O)[C@H](N)CC1CCCCC1` (stereo partly drawn) [Example 211, (2RS,3R)-3-amino-4-cyclohexyl-N-(1.5-dimethylhexyl)-2-hydroxybutanamide Hydrochloride], the IC50 worked out at 2.4 µM. Regarding `N[C@H](CC1CCCCC1)C(O)C(=O)NCCc1c(Cl)cccc1Cl` (stereo partly drawn) [Example 165, (2RS,3R)-3-amino-4-cyclohexyl-N-(2,6-dichlorophenethyl)-2-hydroxybutanamidehydrochloride], the IC50 turned out to be 0.26 µM. Turning to `C[C@H](NC(=O)C(O)[C@H](N)CC1CCCCC1)C(=O)OCc1ccc(CC(=O)OCC(=O)c2ccccc2)cc1` (stereo partly drawn) [Example 96, (2RS,3R)-3-Amino-2-hydroxy-4-cyclohexyl)butanoyl-L-alanine-(4-(methyl)phenyl Acetic Acid Phenacyl Ester) Hydrochloride], the IC50 is 2.9 µM. For `N[C@H](CC1CCCCC1)C(O)C(=O)NCc1ccc(Br)cc1` (mixture of isomers) [Example 190, (2RS,3R)-3-amino-N-(4-bromobenzyl)-4-cyclohexyl-2-hydroxybutanamide hydrochloride], the IC50 is 1.3 µM. On the same count and under the same terms, under `N[C@H](CC1CCCCC1)C(O)C(=O)NCc1nc2ccccc2[nH]1` (stereo partly drawn) [Example 60, (2RS,3R) N-(2-aminomethylbenzimidazolyl) 3-amino-2-hydroxy-4-cyclohexyl)butanamide hydrochloride] stands 18 µM. In the case of `CCNC(=O)[C@H](C)NC(=O)C(O)[C@@H](N)CCSC` (stereo partly drawn) [Example 2, (2RS,3S,1'S)-N-((1-Ethylcarboxamido)ethyl)-3-amino-2-hydroxy-5-(methylthio)pentanamide hydrochloride], the IC50 was 47 µM. As to `N[C@H](CC1CCCCC1)C(O)C(=O)NCCc1ccc(Br)cc1` (mixture of isomers) [Example 201, (2RS,3R)-3-amino-N-(4-bromophenethyl)-4-cyclohexyl-2-hydroxybutanamide Hydrochloride], the IC50 came to 0.71 µM.

In the case of `COc1cc(Nc2ccccc2)ccc1NC(=O)C(O)[C@H](N)CC1CCCCC1` (mixture of isomers) [Example 174, (2RS,3R)-3-amino-N-(4-anilino-2-methoxyphenyl)-4-cyclohexyl-2-hydroxybutanamide hydrochloride], the IC50 worked out at 1.5 µM. For the molecule `N[C@H](CC1CCCCC1)C(O)C(=O)NCCc1cccc(Cl)c1` (mixture of isomers) [Example 199, (2RS,3R)-3-amino-N-(3-chlorophenethyl)-4-cyclohexyl-2-hydroxybutanamide hydrochloride], the IC50 was 1 µM. For `CCOC(=O)CCNC(=O)C(O)[C@H](N)Cc1ccccc1` (mixture of isomers) [Example 20, (2RS,3R)-N-(2-(carboethoxy)ethyl)-3-amino-2-hydroxy-4-phenyl-butanamide hydrochloride], the IC50 was 5.8 µM. `CC(C)OCCCNC(=O)C(O)[C@H](N)CC1CCCCC1` (mixture of isomers) [Example 213, (2RS,3R)-3-amino-4-cyclohexyl-2-hydroxy-N-(3-isopropoxypropyl)butanamide Hydrochloride]: the IC50 worked out at 2.6 µM. The same measure, in the same setting: under `N[C@H](CC1CCCCC1)C(O)C(=O)NCc1ccco1` (mixture of isomers) [Example 100, (2RS,3R)-3-Amino-4-cyclohexyl-N-(2-furylmethyl)-2-hydroxybutanamide Hydrochloride] stands 5.9 µM.

With `CCSCC[C@@H](N)C(O)C(=O)NCCCCc1ccccc1` (stereo partly drawn) [Example 13, (2RS,3R)-N-(4-phenyl)butyl)-3-amino-2-hydroxy-5-(ethylthio)pentanamide hydrochloride], the IC50 came out at 1.1 µM. With `N[C@H](CC1CCCCC1)C(O)C(=O)Nc1cccc(C(F)(F)F)c1` (mixture of isomers) [Example 151, (2RS,3R)-3-amino-4-cyclohexyl-2-hydroxy-N-(3-(trifluoromethyl)phenyl)butanamide], the IC50 amounted to 0.43 µM. Turning to `C[C@@H](NC(=O)C(O)[C@H](N)CC1CCCCC1)c1cccc2ccccc12` (mixture of isomers) [Example 134, (2RS,3R)-3-amino-4-cyclohexyl-2-hydroxy-N-((1R)-1-(1-naphthyl)ethyl)butanamide hydrochloride], the IC50 worked out at 3.1 µM. Consider `COc1cccc(CCNC(=O)C(O)[C@H](N)CC2CCCCC2)c1` (mixture of isomers) [Example 196, (2RS,3R)-3-amino-4-cyclohexyl-2-hydroxy-N-(3-methoxyphenethyl)butanamide hydrochloride], for which the IC50 was found to be 0.82 µM.

`CC(NC(=O)C(O)[C@H](N)CC1CCCCC1)c1cccc2ccccc12` (stereo partly drawn) [Example 101, (2RS,3R,1'RS)-3-Amino-4-cyclohexyl-2-hydroxy-N-(1-(1-naphthyl)ethyl)butanamide Hydrochloride]: the IC50 came out at 0.31 µM. In the case of `CCOC(=O)C(C)(C)NC(=O)C(O)[C@H](N)CCSCC` (some centres unmarked) [Example 35, hydrochloride], the IC50 is 0.11 µM. Take `N[C@H](CC1CCCCC1)C(O)C(=O)NC(CO)CO` (mixture of isomers) [Example 136, (2RS,3R)-3-amino-4-cyclohexyl-2-hydroxy-N-(2-hydroxy-1-(hydroxymethyl)ethyl)butanamide trifluoroacetate]: the IC50 stood at 1.8 µM.

`N[C@H](CC1CCCCC1)C(O)C(=O)NCCc1ccc(Oc2ccccc2)cc1` (mixture of isomers) [Example 168, (2RS,3R)-3-amino-4-cyclohexyl-2-hydroxy-N-(4-phenoxyphenethyl)butanamide hydrochloride]: the IC50 is 1.5 µM. As for `N[C@H](CC1CCCCC1)C(O)C(=O)NCCCCNC(=O)OCc1ccccc1` (stereo partly drawn) [Example 77, (2RS,3R)-3-amino-2-hydroxy-4-cyclohexyl)butanoyl-(4-benzloxycarbonylamino)butylamide hydrochloride], the IC50 was determined as 3.3 µM.

As for `C[C@H](NC(=O)C(O)[C@H](N)CC1CCCCC1)c1cccc2ccccc12` (mixture of isomers) [Example 133, (2RS,3R)-3-amino-4-cyclohexyl-2-hydroxy-N-((1S)-1-(1-naphthyl)ethyl)butanamide hydrochloride], the half-inhibitory concentration (IC50) was 0.27 µM. As for `N[C@H](CC1CCCCC1)C(O)C(=O)NCc1ccccc1Cl` (mixture of isomers) [Example 159, (2RS,3R)-3-amino-N-(2-chlorobenzyl)-4-cyclohexyl-2-hydroxybutanamide], the IC50 came out at 1.5 µM. Same read-out and setting: under `CC(C)(C)c1ccc(NC(=O)C(O)[C@H](N)CC2CCCCC2)cc1` (some centres unmarked) [Example 150] stands 3.1 µM; under `CSCC[C@@H](N)C(O)C(=O)NCCCCc1ccccc1` (mixture of isomers) [Example 7, (2RS,3R)-N-(4-phenylbutyl)-3-amino-2-hydroxy-5-(methylthio)pentanamide hydrochloride], 2 µM. With `N[C@H](CC1CCCCC1)C(O)C(=O)NCCc1ccc(S(N)(=O)=O)cc1` (stereo partly drawn) [Example 88, (2RS,3R)-3-amino-2-hydroxy-4-cyclohexyl)butanoyl-L-alanine-4-sulfonamide benzyl ester hydrochloride], the IC50 came out at 2.2 µM. `COc1cccc(CNC(=O)C(O)[C@H](N)CC2CCCCC2)c1` (mixture of isomers) [Example 189, (2RS,3R)-3-amino-4-cyclohexyl-2-hydroxy-N-(3-methoxybenzyl)butanamide hydrochloride]: the IC50 was determined as 1.5 µM. Consider `C[C@H](NC(=O)C(O)[C@H](N)Cc1ccccc1)C(=O)OCc1ccccc1` (some centres unmarked) [Example 105, Hydrochloride], for which the IC50 is 19 µM.

Still in this experiment, the particulars now being: recombinant MetAP2 4 μg/mL, pH 7.4, Met-Ala-Ser substrate, 20 minutes.
On to `N[C@H](CC1CCCCC1)C(O)C(=O)NC1CCCc2ccccc21` (mixture of isomers) [Example 110, (2RS,3R)-3-Amino-4-cyclohexyl-2-hydroxy-N-(1,2,3,4-tetrahydro-1-naphthalenyl)butanamide Hydrochloride], for which the IC50 worked out at 1 µM. Still for that read-out and setting: to `COc1ccc2[nH]cc(CCNC(=O)[C@H](C)NC(=O)C(O)[C@H](N)CC3CCCCC3)c2c1` (stereo partly drawn) [Example 65, ((2RS,3R)-3-amiono-2-hydroxy-4-cyclohexyl)butanoyl-L-alanyl-(5-methoxytryptamine)amide hydrochloride] belongs 5.6 µM.
